From publication PMC6753678, “Fueling Open Innovation for Malaria Transmission-Blocking Drugs: Hundreds of Molecules Targeting Early Parasite Mosquito Stages” (Frontiers in Microbiology, 2019)
Where two headings read alike, the source gives them in different places.

Columns and labels:
[1] = test system: P. berghei ookinete development; settings: for % inhibition, Replicate A / % inhibition, Replicate B: primary screen at 1 μM
[2] = test system: 3D7-strain P. falciparum asexual parasites; experiment: P. falciparum asexual growth inhibition assay (Pf GIA); type: cell-based, Plasmodium falciparum; settings: dose response confirmation; read-out: Pf asexual growth inhibition assays IC50
Method in brief: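 3D7 parasites at 0.25% parasitemia, 2% hematocrit were exposed to compounds in dose response for 72 h at 37°C under 5% CO2, 5% O2. Viability read as parasite LDH activity (nitro blue tetrazolium, A650) after freeze-thaw; inhibition scaled to chloroquine (50 μM) and DMSO controls, mean of three biological replicates.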

HepG2 cells = experiment: HepG2 cytotoxicity assay; settings: for Pb ODA (this manuscript) HepG2 cytoxicity: HepG2 cytotoxicity listed with the Pb ODA data set (this manuscript); for IC50: read-out: HepG2 cytotoxicity assay IC50, dose response confirmation
Method in brief: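 Cells are plated at 2,500 per well on compound-treated plates in MEM containing 10% fetal bovine serum and 1% NEAA, then incubated 48 h at 37°C.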

[3] = read-out: Pb ODA (this manuscript) IC50, P. berghei ookinete development assay, this manuscript
[4] = read-out: Pb Ookinete development assay IC50, dose response confirmation
[5] = read-out: Pb ODA IC50, this manuscript
[6] = unified HepG2 value across the three screens
[7] = HepG2 values of the three screens unified

| Structure (SMILES) | Is compound selective in assay? Pb ODA active? [1] | % inhibition, Replicate A [1] | % inhibition, Replicate B [1] | IC50 [1, 3] | IC50 [1, 4] | IC50 [2] | Pb ODA (this manuscript) HepG2 cytoxicity (HepG2 cells) | IC50 (HepG2 cells) | Is compound selective in assay? Pb ODA active? ([1]; 1: YES, 0: NO) | IC50 [1, 5] | Unified cytotox (HepG2 cells; [6]) | Unified cytotox (HepG2 cells; [7]) |
| --- | --- | --- | --- | --- | --- | --- | --- | --- | --- | --- | --- | --- |
| Br.COc1ccc(CCCON2C(=N)N=C(N)NC2(C)C)cc1 [TCMDC-131693] | 0 (key: 1: YES; 0: NO) | 23.91% | 55.92% | 5900 nM | 5900 nM | < 0.2 nM | 0.001 µM | 1 nM |  |  |  |  |
| Br.CC1(C)NC(N)=NC(=N)N1OCCSc1ccc(Cl)c(Cl)c1 [TCMDC-131704] | 0 (key: 1: YES; 0: NO) | 51.68% | 39.02% | 8290 nM | 8290 nM | < 0.2 nM | 0.001 µM | 1 nM |  |  |  |  |
| Br.CCC(ON1C(N)=NC(N)=NC1(C)C)c1ccc(Cl)cc1 (centres unmarked) [TCMDC-131709] | 0 (key: 1: YES; 0: NO) | 60.03% | 57.14% | 3260 nM | 3260 nM | 1.55 nM | 0.00513 µM | 5.13 nM |  |  |  |  |
| Br.CC(CCON1C(N)=NC(N)=NC1(C)C)c1ccc(Cl)cc1 (centres unmarked) [TCMDC-131721] | 0 (key: 1: YES; 0: NO) | 71.36% | 33.21% | 9590 nM | 9590 nM | < 0.2 nM | 0.001 µM | 1 nM |  |  |  |  |
| Br.COc1ccc(CC(C)CON2C(N)=NC(N)=NC2(C)C)cc1 (centres unmarked) [TCMDC-131722] | 0 (key: 1: YES; 0: NO) | 50.32% | 49.29% | 4860 nM | 4860 nM | < 0.2 nM | 0.001 µM | 1 nM |  |  |  |  |
| CC1(C)NC(N)=NC(=N)N1OCOc1ccc(Cl)cc1.Cl [TCMDC-131734] | 0 (key: 1: YES; 0: NO) | 89.86% | 40.05% | 2620 nM | 2620 nM | < 0.2 nM | 0.0759 µM | 75.9 nM |  |  |  |  |
| Br.CC1(C)NC(N)=NC(=N)N1OCCCOc1ccccc1Cl [TCMDC-131739] | 0 (key: 1: YES; 0: NO) | 73.15% | 48.60% | 3130 nM | 3130 nM | < 0.2 nM | 0.001 µM | 1 nM |  |  |  |  |
| CCOC(=O)NC1=NC(=N)N(OCCCOc2cc(Cl)c(Cl)cc2Cl)C(C)(C)N1 [TCMDC-131741] | 0 (key: 1: YES; 0: NO) | 60.63% | 47.57% | 5080 nM | 5080 nM | < 0.2 nM | 0.001 µM | 1 nM |  |  |  |  |
| Br.CC(C)(C)c1ccccc1OCCCON1C(=N)N=C(N)NC1(C)C [TCMDC-131751] | 0 (key: 1: YES; 0: NO) | 62.16% | 60.88% | 3070 nM | 3070 nM | < 0.2 nM | 0.001 µM | 1 nM |  |  |  |  |
| Br.CC1(C)NC(N)=NC(=N)N1OCCCOc1cccc(Cl)c1 [TCMDC-131762] | 0 (key: 1: YES; 0: NO) | 47.79% | 53.67% | 2100 nM | 2100 nM | < 0.2 nM | 0.001 µM | 1 nM |  |  |  |  |
| CC[C@H]1CN2CCc3cc(OC)c(OC)cc3[C@@H]2C[C@@H]1C[C@H]1NCCc2c1cc(OC)c(O)c2Cl [TCMDC-131802] | 1 (key: 1: YES; 0: NO) | 61.67% | 93.54% | 270 nM | 268 nM | 156 nM | 4.52 µM | 4520 nM |  |  |  |  |
| Br.CC[C@H]1CN2CCc3cc(OC)c(OC)cc3[C@@H]2C[C@@H]1C[C@H]1NCCc2c1cc(OC)c(O)c2I [TCMDC-131829] | 1 (key: 1: YES; 0: NO) | 45.92% | 90.22% | 410 nM | 412 nM | 98 nM | 5.43 µM | 5430 nM |  |  |  |  |
| CC[C@@]1(O)C(=O)OCc2c1cc1n(c2=O)Cc2c-1nc1cc3c(cc1c2CN1CCN(C)CC1)OCCO3.Cl [TCMDC-131875] |  | 61.11% | 69.44% |  | 2370 nM | 204 nM |  | 1260 nM | 0 (0: NO) | 2370 nM | 1.26 µM |  |
| CC[C@@]1(O)C(=O)OCc2c1cc1n(c2=O)Cc2c-1nc1cc3c(cc1c2CN1CCOCC1)OCO3.O=C(O)C(F)(F)F [TCMDC-131876] |  | 79.37% | 70.89% |  | 1250 nM | 7 nM |  | 470 nM | 0 (0: NO) | 1250 nM | 0.47 µM |  |
| Nc1nc(N)c2c(ccc3c2cnn3Cc2cccnc2)n1 [TCMDC-131932] | 0 (key: 1: YES; 0: NO) | 68.89% | 58.00% | 2390 nM | 2390 nM | 1.3 nM | 0.055 µM | 55 nM |  |  |  |  |
| CN(C)S(=O)(=O)n1ncc2c3c(N)nc(N)nc3ccc21.Cl [TCMDC-131933] | 0 (key: 1: YES; 0: NO) | 39.05% | 54.28% | 540 nM | 539 nM | 23 nM | 0.001 µM | 1 nM |  |  |  |  |
| COc1ccc(Cn2ncc3c4c(N)nc(N)nc4ccc32)cc1OC [TCMDC-131934] | 0 (key: 1: YES; 0: NO) | 44.86% | 51.03% | 1530 nM | 1530 nM | 58 nM | 0.00214 µM | 2.14 nM |  |  |  |  |
| CCCCCCCc1cc(=O)c2ccccc2[nH]1 [TCMDC-132026] | 1 (key: 1: YES; 0: NO) | 86.88% | 74.93% | 1140 nM | 1140 nM | 458 nM | 20.65 µM | 20600 nM |  |  |  |  |
| Nc1c2ccccc2nc2ccc(Cl)cc12 [TCMDC-132029] |  | 75.70% | 81.80% |  | 1460 nM | 324 nM |  | 13500 nM | 0 (0: NO) | 1460 nM | 13.49 µM |  |
| COc1ccc2c(=O)c3ccc(OC)cc3[nH]c2c1 [TCMDC-132054] | 1 (key: 1: YES; 0: NO) | 107.15% | 103.78% | 580 nM | 575 nM | 2420 nM | 100.00 µM | 100000 nM |  |  |  |  |
| COc1ccc(C23Oc4cc(OC)cc(OC)c4C2(O)C2(CC3c3ccccc3)SCCCS2)cc1 (centres unmarked) [TCMDC-132098] |  | 104.91% | 114.13% |  | 401 nM | 712 nM |  | 100000 nM | 1 (1: YES) | 400 nM | 100.00 µM |  |
| COc1ccc(-c2ccc([N+](=O)[O-])cc2C(=O)NCC(C)Oc2ccc(C(F)(F)F)cc2)cc1 (centres unmarked) [TCMDC-132304] |  | 29.22% | 50.52% |  | 4010 nM | 520 nM |  | 100000 nM | 1 (1: YES) | 4010 nM | 100.00 µM |  |
| Cc1[nH]c(C)c(-c2ccc(-c3ccc(OCC(F)(F)F)cc3)nc2)c(=O)c1Cl [TCMDC-132306] |  | 58.32% | 97.73% |  | 1240 nM | 655 nM |  | 100000 nM | 1 (1: YES) | 1240 nM |  | 100.00 µM |
| Cc1[nH]c(C)c(-c2ccc(-c3ccc(C(F)F)cc3)nc2)c(=O)c1Cl [TCMDC-132329] |  | 72.54% | 35.56% |  | 7800 nM | 1440 nM |  | 100000 nM | 1 (1: YES) | 7800 nM |  | 100.00 µM |
| Cc1noc(C)c1-c1cccc(CNCc2ccc(-c3cccc(-c4nc5cc(F)ccc5[nH]4)c3)cc2)c1.O=C(O)C(F)(F)F [TCMDC-133060] |  | 12.93% | 53.61% |  | 13700 nM | 1300 nM |  | 15500 nM | 0 (0: NO) | 13700 nM | 15.49 µM |  |
